Results reported in patent US9115151B2, “Substituted 2,10-dihydro-9-oxa-1,2,4A-triazaphenanthren-3-ones and uses thereof” (AbbVie Inc., priority 2012, dated 2015).
pEC50, pIC50: −log10 of the molar value. Counter-ions that a name gives are not always drawn.

Key:
PKCθ = target: T1, PKCθ (Homo sapiens, UniProt Q04759); test: In vitro enzyme assay (time-resolved fluorescence kinase assay), PKCθ, 100 μM ATP; type: biochemical
T1 construct: His6; purchased Millipore; host or cells: baculovirus in Sf21 cells
T1 sequence (Q04759 whole entry): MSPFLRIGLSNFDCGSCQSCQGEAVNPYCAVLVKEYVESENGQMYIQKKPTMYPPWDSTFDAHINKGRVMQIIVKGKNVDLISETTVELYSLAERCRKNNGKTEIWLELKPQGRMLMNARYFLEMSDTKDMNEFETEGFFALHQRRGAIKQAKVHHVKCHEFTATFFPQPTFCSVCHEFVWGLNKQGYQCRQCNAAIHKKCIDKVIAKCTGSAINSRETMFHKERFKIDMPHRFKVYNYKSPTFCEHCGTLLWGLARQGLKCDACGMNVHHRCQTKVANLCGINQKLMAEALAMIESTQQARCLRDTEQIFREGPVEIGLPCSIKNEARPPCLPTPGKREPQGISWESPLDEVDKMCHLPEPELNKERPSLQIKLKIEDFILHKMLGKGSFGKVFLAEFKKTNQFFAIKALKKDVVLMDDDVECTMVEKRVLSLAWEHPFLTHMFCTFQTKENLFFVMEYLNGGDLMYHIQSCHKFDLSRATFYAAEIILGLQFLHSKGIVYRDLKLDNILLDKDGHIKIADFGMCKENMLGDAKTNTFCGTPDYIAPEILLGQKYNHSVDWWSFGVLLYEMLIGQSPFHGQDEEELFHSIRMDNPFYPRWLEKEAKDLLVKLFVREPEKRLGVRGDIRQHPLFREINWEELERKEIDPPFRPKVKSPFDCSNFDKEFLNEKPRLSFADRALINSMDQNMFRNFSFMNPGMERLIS
Outline: (§1)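 Read-out was time-resolved fluorescence, corrected for a minus-enzyme blank and converted to percent activity relative to enzyme without drug. They were stopped with EDTA.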

PKCα = target: T2, PKCα (Homo sapiens, UniProt P17252); test: In vitro enzyme assay (time-resolved fluorescence kinase assay), PKCα, 100 μM ATP; type: biochemical; settings: 100 μM ATP; read-out: PKCα enzyme IC50
T2 construct: His6; purchased Millipore; host or cells: baculovirus in Sf21 cells
Outline: as §1

[1] = tested on: CD3/CD28 induced IL-2 in human T-Blasts; test: T-Blasts CD3/CD28 induced IL-2 assay; type: cell-based; settings: read-out: CD3/CD28-stimulated IL2 in T-blasts EC50
Outline: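 PHA-generated human T-blasts, 2×10^5 per well, preincubated 30 min with 8-point 1/3 compound dilutions in duplicate, then stimulated with anti-CD3+anti-CD28 (5 μg/mL final) for 24 h at 37° C. Supernatant IL-2 measured; MTT toxicity run on remaining cells.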

`CC(C)c1cc2c(cc1[C@@H]1CCN(C)C[C@@H]1C)N1C(=NNC(=O)[C@H]1C)CO2` [Example 244] was tested, and the pIC50 (PKCθ) was over 6.60, the pIC50 (PKCα) was 6.00 to 6.60 and the pEC50 [1] was over 6.60.
Molecule `CC1C(=O)NN=C2COc3cc(-c4ccc(F)cc4)c(N(C)C4(C)CN(C)C4)cc3N21` (stereo not drawn) [Example 168] has a pIC50 (PKCθ) of over 6.60, a pIC50 (PKCα) of 6.00 to 6.60 and a pEC50 [1] of over 6.60.
`CCN(c1cc2c(cc1-c1ccccc1F)OCC1=NNC(=O)C(C)N12)C1(C)CN(C)C1` (stereo not drawn) [Example 166, 6-[(1,3-Dimethyl-azetidin-3-yl)-ethyl-amino]-7-(2-fluoro-phenyl)-4-methyl-2,10-dihydro-9-oxa-1,2,4a-triaza-phenanthren-3-one hydrochloride acid] gave a pIC50 (PKCθ) of over 6.60, a pIC50 (PKCα) of over 6.60 and a pEC50 [1] of over 6.60.
`C[C@@H]1C(=O)NN=C2COc3cc(-c4ccc(OC(F)(F)F)cc4)c(NC4CNC4)cc3N21` [Example 11] gave a pIC50 (PKCθ) of 6.00 to 6.60, a pIC50 (PKCα) of 5.00 to 6.00 and a pEC50 [1] of over 6.60.
`CC1C(=O)NN=C2COc3ccc(CC4CNC4)cc3N21` (stereo not drawn) [Example 78, 6-Azetidin-3-ylmethyl-4-methyl-2,10-dihydro-9-oxa-1,2,4a-triaza-phenanthren-3-one trifluoroacetic acid] showed a pIC50 (PKCθ) of over 6.60, a pIC50 (PKCα) of 5.00 to 6.00 and a pEC50 [1] of over 6.60.
With `C[C@H]1C(=O)NN=C2COc3cc4ccn([C@@]5(C)CCNC5)c4cc3N21` [Example 162, (S)-1-Methyl-10-((S)-3-methyl-pyrrolidin-3-yl)-3,5-dihydro-10H-6-oxa-3,4,10,11b-tetraaza-cyclopenta[b]phenanthren-2-one] the pIC50 (PKCθ) was over 6.60, the pIC50 (PKCα) was 6.00 to 6.60 and the pEC50 [1] was over 6.60.
`C[C@@H]1C(=O)NN=C2COc3cc4ccn([C@@H]5CCNC5)c4cc3N21` [Example 151-2, (R)-1-Methyl-10-(R)-pyrrolidin-3-yl-3,5-dihydro-10H-6-oxa-3,4,10,11b-tetraaza-cyclopenta[b]phenanthren-2-one hydrochloric acid] showed a pIC50 (PKCθ) of over 6.60, a pIC50 (PKCα) of 5.00 to 6.00 and a pEC50 [1] of 6.00 to 6.60.
`C[C@@H]1C(=O)NN=C2COc3cc4ccn([C@H]5CCNC5)c4cc3N21` [Example 151-1, (R)-1-Methyl-10-(S)-pyrrolidin-3-yl-3,5-dihydro-10H-6-oxa-3,4,10,11b-tetraaza-cyclopenta[b]phenanthren-2-one hydrochloric acid] was tested, and the pIC50 (PKCθ) was over 6.60, the pIC50 (PKCα) was 6.00 to 6.60 and the pEC50 [1] was over 6.60.
For `C[C@@H]1C(=O)NN=C2COc3cc(-c4ccccc4F)c([C@@H]4CCN(CCO)C[C@@H]4C)cc3N21` [Example 206], the pIC50 (PKCθ) was over 6.60, the pIC50 (PKCα) was 5.00 to 6.00 and the pEC50 [1] was over 6.60.
Work on `C[C@@H]1C(=O)NN=C2COc3cc(-c4ccccc4F)c(N4C[C@H](C)N(C)C[C@@H]4C)cc3N21` [Example 247] yielded a pIC50 (PKCθ) of over 6.60, a pIC50 (PKCα) of over 6.60 and a pEC50 [1] of over 6.60.
In the case of `C[C@H](c1ccc2c(c1)N1C(=NNC(=O)[C@H]1C)CO2)C1CNC1` [Example 110], the pIC50 (PKCθ) was 6.00 to 6.60, the pIC50 (PKCα) was 5.00 to 6.00 and the pEC50 [1] was 6.00 to 6.60.
`C[C@@H]1C(=O)NN=C2COc3cc4c(cc3N21)N([C@@H]1CCNC1)CC4` [Example 153, (R)-1-Methyl-10-(R)-pyrrolidin-3-yl-3,5,9,10-tetrahydro-8H-6-oxa-3,4,10,11b-tetraaza-cyclopenta[b]phenanthren-2-one hydrochloric acid] was tested, and the pIC50 (PKCθ) was 6.00 to 6.60, the pIC50 (PKCα) was 5.00 to 6.00 and the pEC50 [1] was 5.00 to 6.00.
`CC(C)c1cc2c(cc1OC1(C)CNC1)N1C(=NNC(=O)C1C)CO2` (stereo not drawn) [Example 82, 7-Isopropyl-4-methyl-6-(3-methyl-azetidin-3-yloxy)-2,10-dihydro-9-oxa-1,2,4a-triaza-phenanthren-3-one trifluoroacetic acid] was tested, and the pIC50 (PKCθ) was over 6.60, the pIC50 (PKCα) was 6.00 to 6.60 and the pEC50 [1] was over 6.60.
Molecule `C[C@@H]1C(=O)NN=C2COc3cc(-c4ccccc4F)c(N4CCN(C)[C@@H](C)C4)cc3N21` [Example 232] has a pIC50 (PKCθ) of over 6.60, a pIC50 (PKCα) of 6.00 to 6.60 and a pEC50 [1] of over 6.60.
With `CC1C(=O)NN=C2COc3cc(-c4ccccc4)c(C4CCNCC4)cc3N21` (stereo not drawn) [Example 119, 1-Methyl-8-phenyl-9-(piperidin-4-yl)-3,5-dihydrobenzo[5,6][1,4]oxazino[3,4-c][1,2,4]triazin-2(1H)-one trifluoroacetic acid] the pIC50 (PKCθ) was over 6.60, the pIC50 (PKCα) was 5.00 to 6.00 and the pEC50 [1] was over 6.60.
In the case of `C[C@@H]1C(=O)NN=C2COc3ccc([C@H]4CCN[C@H](Cc5ccccc5)C4)cc3N21` (single isomer, unassigned) [Example 109-1, trifluoroacetic acid], the pIC50 (PKCθ) was over 6.60, the pIC50 (PKCα) was 5.00 to 6.00 and the pEC50 [1] was over 6.60.
`C[C@H](O)CN1CC(C)([C@H](C)c2cc3c(cc2-c2ccccc2F)OCC2=NNC(=O)[C@@H](C)N23)C1` [Example 139, (R)-7-(2-Fluoro-phenyl)-6-{(R)-1-[1-((S)-2-hydroxy-propyl)-3-methyl-azetidin-3-yl]-ethyl}-4-methyl-2,10-dihydro-9-oxa-1,2,4a-triaza-phenanthren-3-one hydrochloric acid] was tested, and the pIC50 (PKCθ) was over 6.60, the pIC50 (PKCα) was over 6.60 and the pEC50 [1] was over 6.60.
With `CC1C(=O)NN=C2COc3cc(-c4ccco4)c(N(C)C4(C)CN(C)C4)cc3N21` (stereo not drawn) [Example 171] the pIC50 (PKCθ) was over 6.60, the pIC50 (PKCα) was 5.00 to 6.00 and the pEC50 [1] was over 6.60.
With `CC1C(=O)NN=C2COc3cc(-c4cccc(C#N)c4)c(NC4CNC4)cc3N21` (racemic) [Example 39] the pIC50 (PKCθ) was over 6.60, the pIC50 (PKCα) was 5.00 to 6.00 and the pEC50 [1] was 6.00 to 6.60.
Work on `CC1C(=O)NN=C2COc3cc(-c4ccc(Cl)cc4Cl)c(NC4CNC4)cc3N21` (racemic) [Example 43] yielded a pIC50 (PKCθ) of over 6.60, a pIC50 (PKCα) of 5.00 to 6.00 and a pEC50 [1] of over 6.60.
`C[C@H]1C(=O)NN=C2COc3cc(C4CC4)c(NC4CNC4)cc3N21` (single isomer, unassigned) [Example 64-2, trifluoroacetic acid] gave a pIC50 (PKCθ) of 6.00 to 6.60, a pIC50 (PKCα) of 5.00 to 6.00 and a pEC50 [1] of 5.00 to 6.00.
`CC1C(=O)NN=C2COc3ccc(C4CCNC(Cc5ccccc5)C4)cc3N21` (stereo not drawn) [Example 86, 9-(2-Benzylpiperidin-4-yl)-1-methyl-3,5-dihydrobenzo[5,6][1,4]oxazino[3,4-c][1,2,4]triazin-2(1H)-one trifluoroacetic acid] gave a pIC50 (PKCθ) of over 6.60, a pIC50 (PKCα) of 5.00 to 6.00 and a pEC50 [1] of over 6.60.
In the case of `CC1C(=O)NN=C2COc3cc(F)c(C4CCNCC4)cc3N21` (stereo not drawn) [Example 72], the pIC50 (PKCθ) was 6.00 to 6.60, the pIC50 (PKCα) was 5.00 to 6.00 and the pEC50 [1] was 5.00 to 6.00.
Molecule `C[C@@H]1C(=O)NN=C2COc3cc(-c4cccc(CO)c4)c(N(C)C4(C)CN(C)C4)cc3N21` [Example 179] has a pIC50 (PKCθ) of over 6.60, a pIC50 (PKCα) of 6.00 to 6.60 and a pEC50 [1] of over 6.60.
`COc1ccc(-c2cc3c(cc2NC2CNC2)N2C(=NNC(=O)C2C)CO3)cc1` (racemic) [Example 30] was tested, and the pIC50 (PKCθ) was over 6.60, the pIC50 (PKCα) was 5.00 to 6.00 and the pEC50 [1] was 6.00 to 6.60.
With `COCCN1CC(C)([C@H](C)c2cc3c(cc2-c2ccccc2F)OCC2=NNC(=O)[C@@H](C)N23)C1` [Example 145] the pIC50 (PKCθ) was over 6.60, the pIC50 (PKCα) was 5.00 to 6.00 and the pEC50 [1] was 6.00 to 6.60.
Work on `C[C@@H]1C(=O)NN=C2COc3cc(-c4ccccc4F)c(N(C)C4(C)CN(CCO)C4)cc3N21` [Example 191] yielded a pIC50 (PKCθ) of over 6.60, a pIC50 (PKCα) of 6.00 to 6.60 and a pEC50 [1] of over 6.60.
`C[C@@H]1C(=O)NN=C2COc3cc(-c4ccccc4F)c([C@H]4CCCNCC4)cc3N21` [Example 217] showed a pIC50 (PKCθ) of over 6.60, a pIC50 (PKCα) of 5.00 to 6.00 and a pEC50 [1] of 6.00 to 6.60.
In the case of `CC1C(=O)NN=C2COc3cc(-c4ccc(C#N)cc4)c(N(C)C4(C)CN(C)C4)cc3N21` (stereo not drawn) [Example 174], the pIC50 (PKCθ) was over 6.60, the pIC50 (PKCα) was 5.00 to 6.00 and the pEC50 [1] was 6.00 to 6.60.
In the case of `C[C@@H]1C(=O)NN=C2COc3cc(-c4c(F)cccc4N4CCNCC4)ccc3N21` [Example 130, (R)-7-(2-Fluoro-6-piperazin-1-yl-phenyl)-4-methyl-2,10-dihydro-9-oxa-1,2,4a-triaza-phenanthren-3-one trifluoroacetic acid], the pIC50 (PKCθ) was 6.00 to 6.60, the pIC50 (PKCα) was 5.00 to 6.00 and the pEC50 [1] was 6.00 to 6.60.
Molecule `C[C@H]1C(=O)NN=C2COc3cc(-c4ccccc4)c(NC4CNC4)cc3N21` (single isomer, unassigned) [Example 1-2, trifluoroacetic acid] has a pIC50 (PKCθ) of 6.00 to 6.60, a pIC50 (PKCα) of 5.00 to 6.00 and a pEC50 [1] of 5.00 to 6.00.
`Cc1cc2c(cc1OC1(C)CNC1)N1C(=NNC(=O)C1C)CO2` (stereo not drawn) [Example 83, 4,7-Dimethyl-6-(3-methyl-azetidin-3-yloxy)-2,10-dihydro-9-oxa-1,2,4a-triaza-phenanthren-3-one trifluoroacetic acid] was tested, and the pIC50 (PKCθ) was over 6.60, the pIC50 (PKCα) was 5.00 to 6.00 and the pEC50 [1] was over 6.60.
For `C[C@@H]1C(=O)NN=C2COc3cc(-c4c(N5CCNCC5)ccc(Cl)c4Cl)ccc3N21` [Example 132], the pIC50 (PKCθ) was over 6.60, the pIC50 (PKCα) was 5.00 to 6.00 and the pEC50 [1] was 6.00 to 6.60.
In the case of `CC1C(=O)NN=C2COc3cc(C4CC4)c(C4CCNCC4)cc3N21` (stereo not drawn) [Example 77, 7-Cyclopropyl-4-methyl-6-piperidin-4-yl-2,10-dihydro-9-oxa-1,2,4a-triaza-phenanthren-3-one trifluoroacetic acid], the pIC50 (PKCθ) was over 6.60, the pIC50 (PKCα) was 5.00 to 6.00 and the pEC50 [1] was 6.00 to 6.60.
`CC(C)c1cc2c(cc1C1CCNCC1)N1C(=NNC(=O)[C@H]1C)CO2` [Example 208] gave a pIC50 (PKCθ) of over 6.60, a pIC50 (PKCα) of 5.00 to 6.00 and a pEC50 [1] of over 6.60.
`CC1C(=O)NN=C2COc3cc(Br)c(NC4CNC4)cc3N21` (stereo not drawn) [Example 85, 6-(Azetidin-3-ylamino)-7-bromo-4-methyl-2,10-dihydro-9-oxa-1,2,4a-triaza-phenanthren-3-one trifluoroacetic acid] showed a pIC50 (PKCθ) of over 6.60, a pIC50 (PKCα) of 5.00 to 6.00 and a pEC50 [1] of 6.00 to 6.60.
Molecule `CC1C(=O)NN=C2COc3cc(-c4ccc(Cl)c(Cl)c4)c(NC4CNC4)cc3N21` (racemic) [Example 25] has a pIC50 (PKCθ) of over 6.60, a pIC50 (PKCα) of 5.00 to 6.00 and a pEC50 [1] of over 6.60.
